Experimental data published in patent US4060527A, “Pyrido[2,3-c]-acridine-1-hydroxy-2-carboxylic acid derivatives” (Fuji Chemical Industries, Ltd., priority 1975, dated 1977).
Converted amounts (≈) assume the structure as drawn.

What was measured:
[1] = test system: Escherichia coli; test: Antibacterial activity (MIC) against Escherichia coli as Gram-negative bacterium; format: cell-based; settings: Table 3, class symbols; for MIC: Escherichia coli, read-out: Antibacterial Activity (MIC) E. coli
Procedure: (§1) Some of the compounds of this invention were tested as to their antibacterial activity (MIC, mcg/ml) against Staph. aureus as Gram-positive bacterium and E. coli as Gram-negative bacterium. In the table, the antibacterial activity of 0.09 to 1.25 mcg/ml. is indicated as A1, and the antibacterial activity of more than 1.25 mcg/ml. and not more than 2.5 mcg/ml. is indicated as A2.

[2] = test system: Staphylococcus aureus; test: Antibacterial activity (MIC) against Staphylococcus aureus as Gram-positive bacterium; format: cell-based; settings: Table 3, class symbols; for MIC: Staphylococcus aureus, read-out: Antibacterial Activity (MIC) Staph. aureus
Procedure: as §1

SMILES | MIC [1] | MIC [2] | Antibacterial Activity (MIC) E. coli [1] | Antibacterial Activity (MIC) Staph. aureus [2]
C=Cc1c2ccccc2nc2c1ccc1ncc(C(=O)O)c(O)c12 [Compound F-690, Pyrido[2,3-c]-acridine-1-hydroxy-7-vinyl-2-carboxylic acid] | 1.25 to 2.5 µg/mL (≈ 3.95 to 7.9 µM) | 1.25 to 2.5 µg/mL (≈ 3.95 to 7.9 µM) | – | –
C=CCc1c2ccccc2nc2c1ccc1ncc(C(=O)O)c(O)c12 [Compound F-694, Pyrido[2,3-c]-acridine-1-hydroxy-7-allyl-2-carboxylic acid] | 0.09 to 1.25 µg/mL (≈ 0.272 to 3.78 µM) | 1.25 to 2.5 µg/mL (≈ 3.78 to 7.57 µM) | – | –
O=C(O)c1cnc2ccc3c(-c4ccccc4Br)c4ccccc4nc3c2c1O [Compound F-777, Pyrido[2,3-c]-acridine-1-hydroxy-7-o-bromophenyl-2-carboxylic acid] | 0.09 to 1.25 µg/mL (≈ 0.202 to 2.81 µM) | 0.09 to 1.25 µg/mL (≈ 0.202 to 2.81 µM) | – | –
O=C(O)c1cnc2ccc3c(-c4ccc(I)cc4)c4ccccc4nc3c2c1O [Compound F-789, Pyrido[2,3-c]-acridine-1-hydroxy-7-p-iodophenyl-2-carboxylic acid] | 0.09 to 1.25 µg/mL (≈ 0.183 to 2.54 µM) | 0.09 to 1.25 µg/mL (≈ 0.183 to 2.54 µM) | – | –
O=C(O)c1cnc2c(Br)cc3cc4ccccc4nc3c2c1O [Compound F-840, Pyrido[2,3-c]-acridine-1-hydroxy-5-bromo-2-carboxylic acid] | 0.09 to 1.25 µg/mL (≈ 0.244 to 3.39 µM) | – | – | –
O=C(O)c1cnc2ccc3c(Br)c4ccccc4nc3c2c1O [Compound F-841, Pyrido[2,3-c]-acridine-1-hydroxy-7-bromo-2-carboxylic acid] | 0.09 to 1.25 µg/mL (≈ 0.244 to 3.39 µM) | – | – | –
O=C(O)c1cnc2c(I)cc3cc4ccccc4nc3c2c1O [Compound F-844, Pyrido[2,3-c]-acridine-1-hydroxy-5-iodo-2-carboxylic acid] | 0.09 to 1.25 µg/mL (≈ 0.216 to 3 µM) | 0.09 to 1.25 µg/mL (≈ 0.216 to 3 µM) | – | –
O=C(O)c1cnc2ccc3c(I)c4ccccc4nc3c2c1O [Compound F-845, Pyrido[2,3-c]-acridine-1-hydroxy-7-iodo-2-carboxylic acid] | 0.09 to 1.25 µg/mL (≈ 0.216 to 3 µM) | 0.09 to 1.25 µg/mL (≈ 0.216 to 3 µM) | – | –
Nc1c2ccccc2nc2c1ccc1ncc(C(=O)O)c(O)c12 [Compound F-849, Pyrido[2,3-c]-acridine-1-hydroxy-7-amino-2-carboxylic acid] | 1.25 to 2.5 µg/mL (≈ 4.09 to 8.19 µM) | 1.25 to 2.5 µg/mL (≈ 4.09 to 8.19 µM) | – | –
CNc1c2ccccc2nc2c1ccc1ncc(C(=O)O)c(O)c12 [Compound F-853, Pyrido[2,3-c]-acridine-1-hydroxy-7-methylamino-2-carboxylic acid] | 0.09 to 1.25 µg/mL (≈ 0.282 to 3.91 µM) | 0.09 to 1.25 µg/mL (≈ 0.282 to 3.91 µM) | – | –
CCNc1cc2cc3ccccc3nc2c2c(O)c(C(=O)O)cnc12 [Compound F-856, Pyrido[2,3-c]-acridine-1-hydroxy-5-ethylamino-2-carboxylic acid] | 0.09 to 1.25 µg/mL (≈ 0.27 to 3.75 µM) | 0.09 to 1.25 µg/mL (≈ 0.27 to 3.75 µM) | – | –
CCNc1ccc2nc3c(ccc4ncc(C(=O)O)c(O)c43)cc2c1 [Compound F-858, Pyrido[2,3-c]-acridine-1-hydroxy-9-ethylamino-2-carboxylic acid] | 0.09 to 1.25 µg/mL (≈ 0.27 to 3.75 µM) | 0.09 to 1.25 µg/mL (≈ 0.27 to 3.75 µM) | – | –
CN(C)c1c2ccccc2nc2c1ccc1ncc(C(=O)O)c(O)c12 [Compound F-869, Pyrido[2,3-c]-acridine-1-hydroxy-7-dimethylamino-2-carboxylic acid] | 0.09 to 1.25 µg/mL (≈ 0.27 to 3.75 µM) | 0.09 to 1.25 µg/mL (≈ 0.27 to 3.75 µM) | – | –
CSc1c2ccccc2nc2c1ccc1ncc(C(=O)O)c(O)c12 [Compound F-877, Pyrido[2,3-c]-acridine-1-hydroxy-7-methylmercapto-2-carboxylic acid] | 0.09 to 1.25 µg/mL (≈ 0.268 to 3.72 µM) | 0.09 to 1.25 µg/mL (≈ 0.268 to 3.72 µM) | – | –
CS(=O)(=O)c1c2ccccc2nc2c1ccc1ncc(C(=O)O)c(O)c12 [Compound F-889, Pyrido[2,3-c]-acridine-1-hydroxy-7-methylsulfonyl-2-carboxylic acid] | 0.09 to 1.25 µg/mL (≈ 0.244 to 3.39 µM) | 0.09 to 1.25 µg/mL (≈ 0.244 to 3.39 µM) | – | –
CS(=O)(=O)c1ccc2nc3c(ccc4ncc(C(=O)O)c(O)c43)cc2c1 [Compound F-890, Pyrido[2,3-c]-acridine-1-hydroxy-9-methylsulfonyl-2-carboxylic acid] | 0.09 to 1.25 µg/mL (≈ 0.244 to 3.39 µM) | 0.09 to 1.25 µg/mL (≈ 0.244 to 3.39 µM) | – | –
O=C(O)c1cnc2ccc3cc4ccc([N+](=O)[O-])cc4nc3c2c1O [Compound F-892, Pyrido[2,3-c]-acridine-1-hydroxy-10-nitro-2-carboxylic acid] | 0.09 to 1.25 µg/mL (≈ 0.268 to 3.73 µM) | 0.09 to 1.25 µg/mL (≈ 0.268 to 3.73 µM) | – | –
O=C(O)c1cnc2c(CO)cc3cc4ccccc4nc3c2c1O [Compound F-893, Pyrido[2,3-c]-acridine-1-hydroxy-5-hydroxymethyl-2-carboxylic acid] | 0.09 to 1.25 µg/mL (≈ 0.281 to 3.9 µM) | 1.25 to 2.5 µg/mL (≈ 3.9 to 7.81 µM) | – | –
O=C(O)c1cnc2ccc3cc4cc(CO)ccc4nc3c2c1O [Compound F-895, Pyrido[2,3-c]-acridine-1-hydroxy-9-hydroxymethyl-2-carboxylic acid] | 0.09 to 1.25 µg/mL (≈ 0.281 to 3.9 µM) | 1.25 to 2.5 µg/mL (≈ 3.9 to 7.81 µM) | – | –
NCc1cc2cc3ccccc3nc2c2c(O)c(C(=O)O)cnc12 [Compound F-901, Pyrido[2,3-c]-acridine-1-hydroxy-5-aminomethyl-2-carboxylic acid] | 1.25 to 2.5 µg/mL (≈ 3.91 to 7.83 µM) | 1.25 to 2.5 µg/mL (≈ 3.91 to 7.83 µM) | – | –
O=C(O)c1cnc2c(N(CO)CO)cc3cc4ccccc4nc3c2c1O [Compound F-913, Pyrido[2,3-c]-acridine-1-hydroxy-5-di-(hydroxymethyl)amino-2-carboxylic acid] | 0.09 to 1.25 µg/mL (≈ 0.246 to 3.42 µM) | 0.09 to 1.25 µg/mL (≈ 0.246 to 3.42 µM) | – | –
O=C(O)c1cnc2ccc3c(N(CO)CO)c4ccccc4nc3c2c1O [Compound F-914, Pyrido[2,3-c]-acridine-1-hydroxy-7-di-(hydroxymethyl)amino-2-carboxylic acid] | 0.09 to 1.25 µg/mL (≈ 0.246 to 3.42 µM) | 0.09 to 1.25 µg/mL (≈ 0.246 to 3.42 µM) | – | –
O=C(O)c1cnc2ccc3cc4cc(N(CO)CO)ccc4nc3c2c1O [Compound F-915, Pyrido[2,3-c]-acridine-1-hydroxy-9-di-(hydroxymethyl)amino-2-carboxylic acid] | 0.09 to 1.25 µg/mL (≈ 0.246 to 3.42 µM) | 0.09 to 1.25 µg/mL (≈ 0.246 to 3.42 µM) | – | –
O=C(O)c1cnc2ccc3cc4ccc(N(CO)CO)cc4nc3c2c1O [Compound F-916, Pyrido[2,3-c]-acridine-1-hydroxy-10-di-(hydroxymethyl)amino-2-carboxylic acid] | 0.09 to 1.25 µg/mL (≈ 0.246 to 3.42 µM) | 0.09 to 1.25 µg/mL (≈ 0.246 to 3.42 µM) | – | –
CC(=O)OCCNc1cc2cc3ccccc3nc2c2c(O)c(C(=O)O)cnc12 [Compound F-925, Pyrido[2,3-c] -acridine-1-hydroxy-5-acetoxyethylamino-2-carboxylic acid] | – | – | A1 (antibacterial activity of 0.09 to 1.25 mcg/ml.) | A1 (antibacterial activity of 0.09 to 1.25 mcg/ml.)
CC(=O)OCCNc1c2ccccc2nc2c1ccc1ncc(C(=O)O)c(O)c12 [Compound F-926, Pyrido[2,3-c]-acridine-1-hydrox-7-acetoxyethylamino-2-carboxylic acid] | – | – | A1 (antibacterial activity of 0.09 to 1.25 mcg/ml.) | A1 (antibacterial activity of 0.09 to 1.25 mcg/ml.)
CC(=O)OCCNc1ccc2nc3c(ccc4ncc(C(=O)O)c(O)c43)cc2c1 [Compound F-927, Pyrido[2,3-c]-acridine-1-hydroxy-9-acetoxyethylamino-2-carboxylic acid] | – | – | A1 (antibacterial activity of 0.09 to 1.25 mcg/ml.) | A1 (antibacterial activity of 0.09 to 1.25 mcg/ml.)
O=C(O)c1cnc2c(O)cc3cc4ccccc4nc3c2c1O [Compound F-929, Pyrido[2,3-c]-1,5-dihydroxy-2-carboxylic acid] | 0.09 to 1.25 µg/mL (≈ 0.294 to 4.08 µM) | 0.09 to 1.25 µg/mL (≈ 0.294 to 4.08 µM) | – | –
O=C(O)c1cnc2ccc3c(O)c4ccccc4nc3c2c1O [Compound F-930, Pyrido[2,3-c]-1,7-dihydroxy-2-carboxylic acid] | 0.09 to 1.25 µg/mL (≈ 0.294 to 4.08 µM) | 0.09 to 1.25 µg/mL (≈ 0.294 to 4.08 µM) | – | –
O=C(O)c1cnc2ccc3cc4cc(O)ccc4nc3c2c1O [Compound F-931, Pyrido[2,3-c]-1,9-dihydroxy-2-carboxylic acid] | 0.09 to 1.25 µg/mL (≈ 0.294 to 4.08 µM) | 0.09 to 1.25 µg/mL (≈ 0.294 to 4.08 µM) | – | –
